The results in this text go back to paper PMC9088798, “An Approach to Derive Functional Peptide Inhibitors of Transcription Factor Activity” (JACS Au, 2022).

Assay [1] relates to TRE DNA. Kind of assay: CD control, interaction with TRE DNA. Type of assay: binding. As to conditions: peptide 50 µM, TRE DNA 5 µM, CD spectra 260-320 nm. As for the experimental part: (§1) µM) alongside ampicillin, kanamycin and chloramphenicol to maintain the required plasmids, and IPTG (1 mM) to induce protein expression. The library transformants were […]
(§2) however a lower stringency is used initially before selection is increased in later steps.
(§3) Colonies from this first round of selection were pooled and serially grown in liquid culture at starting OD600 of 0.05 and grown at 37°C with shaking at 200 rpm until the OD600 […]
increased to the optimum 4 µM in subsequent passages. Bacteria containing the most effective functional antagonists were expected to produce higher levels of TRE-mDHFR which provides a growth advantage, and these will dominate the culture. At each passage step, a sample of the culture was plated on LB agar (supplemented with antibiotics to maintain plasmids) to select and sequence individual colonies, and a DNA pool was also sequenced. This allows the occurrence of library members to be monitored as winner sequences are selected for. Assay Validation experiments utilised a modified assay methodology whereby overnight cultures from glycerol stocks of the Control Strains (Figure S6) were diluted to OD600=0.5 and 50 µL was plated on a selective M9 minimal […]
Circular Dichroism (CD): An Applied Photophysics Chirascan was used for CD measurements, with a 200 µL sample in a 1 mm path length CD cell. […]

Assay [2] concerns the target T1, cJun bZIP/TRE DNA interaction (Homo sapiens, UniProt P05412).
T1 construct: The human cJun bZIP domain spans from Arg252 to Leu308; His-SUMO (N, cleaved yes); AS cap (two residues Ala-Ser) (N); GAP cap (three residues Gly-Ala-Pro) (C); made in house; host or cells: E. coli (pET21-His-SUMO plasmid)
Kind of assay: EMSA, antagonism of cJun/TRE DNA interaction. The format is biochemical. As to conditions: cJun bZIP 20 μM, TRE DNA 2 μM, free DNA band intensity, 4°C 30 minutes, pH 8, 1.3% agarose gel; Hill equation; three independent experiments, one SD. The source says: Figure 6 HingeW antagonizes cJun/TRE DNA interaction more effectively than A-FosW. (A) CD spectra showing a shift in the TRE DNA peak at ∼281 nm upon addition of cJun, which is reversed by the titration of HingeW into the sample, as HingeW sequesters the cJun in a nonfunctional heterodimer. […] EMSA showing the (C) unbound TRE DNA band shift upon addition of cJun and the subsequent restoration of the unbound DNA band intensity upon titration of either (D) HingeW or (E) A-FosW. (F). For both CD and EMSA, data was averaged from three independent experiments and the plotted error bars indicate one standard deviation.
To provide further evidence of functional antagonism, an electrophoretic mobility shift assay (EMSA) was employed. […] No bound cJun/TRE DNA band was observed as the overall charge of this complex prohibited entry into the gel. Antagonism was therefore best observed by monitoring the intensity of the free DNA band. […]
Control experiments involved the injection of the antagonist peptide sample into the cell containing ITC buffer alone to determine the heat of dilution which was subtracted. The resulting binding data were fit to a one site binding model to extract the enthalpy change of binding (ΔH) and the equilibrium binding constant (K D), from which the free energy change of binding (ΔG) and the entropy change of binding (ΔS) was calculated (41). […]

In assay [3] the test system is TRE DNA. Kind of assay: CD TRE DNA peak, binding of cJun to TRE DNA. As to conditions: cJun 20 μM, TRE DNA 5 μM, ~281 nm. As for the experimental part:
The binding of cJun to TRE DNA can be observed by monitoring a DNA absorbance peak in the CD spectrum centered at ∼281 nm.[44] […] The addition of cJun (20 μM) to TRE DNA (5 μM) decreases this DNA peak by 55% as the cJun engages its target TRE site and alters the DNA structure (Figure 6A). Subsequent titration of HingeW into this bound cJun/TRE DNA mixture reverses the peak shift, with the peak increasing as DNA is released. […]
as §1, §2, §3
increased to the optimum 4 µM in subsequent passages. Bacteria containing the most effective functional antagonists were expected to produce higher levels of TRE-mDHFR which provides a growth advantage, and these will dominate the culture. […] This allows the occurrence of library members to be monitored as winner sequences are selected for. […]

For orientation: IC50 means the concentration needed to halve the response being measured. Lower therefore signals greater potency.

T1 sequence (P05412 252-308): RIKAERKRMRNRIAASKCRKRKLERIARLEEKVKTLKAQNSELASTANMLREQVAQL

Consider “LEQRAEELARENEELEKEAEELEQELDELQAEIEQLEERNYALRKEIEDLQKQLEKL [A-FosW, N-terminal AS and C-terminal GAP caps, 6xHis-tagged]”, for which the “interaction with TRE DNA” value in the assay on TRE DNA [1] is “no interaction with DNA”. Moreover, in assay [2], inhibition was half-maximal at 12.1 ± 1.9 µM (IC50). In the case of “cJun bZIP: human cJun bZIP domain, Arg252 to Leu308 (target protein)”, the “decrease of TRE DNA CD peak upon addition of cJun” value with TRE DNA [3] was 55%.
